# Laboratory results published in ChEMBL document CHEMBL1201862, “PubChem BioAssay data set” (2004).
#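 Five compound concentrations were applied to cells in 96-well plates for 48 hours; endpoints were derived by simple linear interpolation of the resulting dose-response curve. Here, GI50 denotes the concentration required for 50% inhibition of growth.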 The source made the active and inactive calls. No stated cut-off is given here; in the data, active = GI50 up to about 1.1 µM and inactive = higher.
# How the values were obtained:
# Test in all cases: growth of human tumour cells (NCI), 48 h
# 786-0 = system: 786-0
# A498 = system: A498
# A549 = system: A549
# ACHN = system: ACHN
# BT-549 = system: BT-549
# CAKI-1 = system: CAKI-1
# CCRF-CEM = system: CCRF-CEM
# COLO 205 = system: COLO 205
# DU-145 = system: DU-145
# EKVX = system: EKVX
# HCC 2998 = system: HCC 2998
# HCT-116 = system: HCT-116
# HCT-15 = system: HCT-15
# HL-60 = system: HL-60
# HOP-62 = system: HOP-62
# HOP-92 = system: HOP-92
# HT-29 = system: HT-29
# IGROV-1 = system: IGROV-1
# K562 = system: K562
# KM12 = system: KM12
# LOX IMVI = system: LOX IMVI
# M14 = system: M14
# MCF7 = system: MCF7
# MDA-MB-231 = system: MDA-MB-231
# MDA-MB-435 = system: MDA-MB-435
# MDA-N = system: MDA-N
# MOLT-4 = system: MOLT-4
# Malme-3M = system: Malme-3M
# NCI-H226 = system: NCI-H226
# NCI-H23 = system: NCI-H23
# NCI-H460 = system: NCI-H460
# NCI-H522 = system: NCI-H522
# NCI/ADR-RES = system: NCI/ADR-RES
# OVCAR-3 = system: OVCAR-3
# OVCAR-4 = system: OVCAR-4
# OVCAR-5 = system: OVCAR-5
# OVCAR-8 = system: OVCAR-8
# PC-3 = system: PC-3
# RPMI-8226 = system: RPMI-8226
# RXF 393 = system: RXF 393
# SF-268 = system: SF-268
# SF-295 = system: SF-295
# SF-539 = system: SF-539
# SK-MEL-28 = system: SK-MEL-28
# SK-MEL-2 = system: SK-MEL-2
# SK-MEL-5 = system: SK-MEL-5
# SK-OV-3 = system: SK-OV-3
# SN12C = system: SN12C
# SNB-19 = system: SNB-19
# SNB-75 = system: SNB-75
# SR = system: SR
# SW-620 = system: SW-620
# T47D = system: T47D
# TK-10 = system: TK-10
# U-251 = system: U-251
# UACC-257 = system: UACC-257
# UACC-62 = system: UACC-62
# UO-31 = system: UO-31
compound,measurement,setting,value
CC[C@@]1(O)C(=O)OCc2c1cc1n(c2=O)Cc2c-1nc1ccccc1c2/C=N\NC(=O)C(N)CCSC (stereo not given in full),GI50,786-0,< 10 nM (active)
same,GI50,A498,62.8 nM (active)
same,GI50,A549,18.3 nM (active)
same,GI50,ACHN,< 10 nM (active)
same,GI50,BT-549,102 nM (active)
same,GI50,CAKI-1,< 10 nM (active)
same,GI50,CCRF-CEM,< 10 nM (active)
same,GI50,COLO 205,1240 nM (inactive)
same,GI50,DU-145,17.5 nM (active)
same,GI50,EKVX,668 nM (active)
same,GI50,HCC 2998,336 nM (active)
same,GI50,HCT-116,25.3 nM (active)
same,GI50,HCT-15,390 nM
same,GI50,HL-60,< 10 nM (active)
same,GI50,HOP-62,< 10 nM (active)
same,GI50,HOP-92,86.3 nM (active)
same,GI50,HT-29,266 nM (active)
same,GI50,IGROV-1,239 nM (active)
same,GI50,K562,10.9 nM (active)
same,GI50,KM12,254 nM (active)
same,GI50,LOX IMVI,< 10 nM (active)
same,GI50,M14,< 12.1 nM (active)
same,GI50,MCF7,< 10 nM (active)
same,GI50,MDA-MB-231,1240 nM (inactive)
same,GI50,MDA-MB-435,108 nM (active)
same,GI50,MDA-N,224 nM (active)
same,GI50,MOLT-4,< 10 nM (active)
same,GI50,Malme-3M,102 nM (active)
same,GI50,NCI-H226,< 16 nM (active)
same,GI50,NCI-H23,< 10 nM (active)
same,GI50,NCI-H460,< 10 nM (active)
same,GI50,NCI-H522,< 32 nM (active)
same,GI50,NCI/ADR-RES,39.5 nM (active)
same,GI50,OVCAR-3,352 nM (active)
same,GI50,OVCAR-4,299 nM (active)
same,GI50,OVCAR-5,774 nM (active)
same,GI50,OVCAR-8,< 11.9 nM (active)
same,GI50,PC-3,130 nM (active)
same,GI50,RPMI-8226,< 28.2 nM (active)
same,GI50,RXF 393,< 14.6 nM (active)
same,GI50,SF-268,< 10 nM (active)
same,GI50,SF-295,< 10 nM (active)
same,GI50,SF-539,< 10 nM (active)
same,GI50,SK-MEL-28,1030 nM (active)
same,GI50,SK-MEL-2,713 nM (active)
same,GI50,SK-MEL-5,14.9 nM (active)
same,GI50,SK-OV-3,< 12.7 nM (active)
same,GI50,SN12C,< 10 nM (active)
same,GI50,SNB-19,< 10 nM (active)
same,GI50,SNB-75,< 10 nM (active)
same,GI50,SR,< 10 nM (active)
same,GI50,SW-620,88.3 nM (active)
same,GI50,T47D,< 10 nM (active)
same,GI50,TK-10,6400 nM (inactive)
same,GI50,U-251,< 10 nM (active)
same,GI50,UACC-257,228 nM (active)
same,GI50,UACC-62,< 10 nM (active)
same,GI50,UO-31,< 10.4 nM (active)
O=C(CN1CCOCC1)Nc1ccc2c(c1)C1Oc3ccccc3CC1CO2 (stereo not given),GI50,786-0,> 100000 nM (inactive)
same,GI50,A498,> 100000 nM (inactive)
same,GI50,A549,> 100000 nM (inactive)
same,GI50,ACHN,> 100000 nM (inactive)
same,GI50,BT-549,38100 nM (inactive)
same,GI50,CAKI-1,> 100000 nM (inactive)
same,GI50,CCRF-CEM,> 100000 nM (inactive)
same,GI50,COLO 205,> 100000 nM (inactive)
same,GI50,DU-145,> 100000 nM (inactive)
same,GI50,EKVX,> 100000 nM (inactive)
same,GI50,HCC 2998,> 100000 nM (inactive)
same,GI50,HCT-116,> 100000 nM (inactive)
same,GI50,HCT-15,> 100000 nM
same,GI50,HOP-62,> 100000 nM (inactive)
same,GI50,HOP-92,> 100000 nM (inactive)
same,GI50,HT-29,> 100000 nM (inactive)
same,GI50,IGROV-1,> 100000 nM (inactive)
same,GI50,K562,> 100000 nM (inactive)
same,GI50,KM12,> 100000 nM (inactive)
same,GI50,LOX IMVI,> 100000 nM (inactive)
same,GI50,M14,> 100000 nM (inactive)
same,GI50,MCF7,> 100000 nM (inactive)
same,GI50,MDA-MB-231,> 100000 nM (inactive)
same,GI50,MDA-MB-435,> 100000 nM (inactive)
same,GI50,MDA-N,> 100000 nM (inactive)
same,GI50,MOLT-4,88100 nM (inactive)
same,GI50,Malme-3M,> 100000 nM (inactive)
same,GI50,NCI-H226,> 100000 nM (inactive)
same,GI50,NCI-H23,> 100000 nM (inactive)
same,GI50,NCI-H522,> 100000 nM (inactive)
same,GI50,NCI/ADR-RES,> 100000 nM (inactive)
same,GI50,OVCAR-3,> 100000 nM (inactive)
same,GI50,OVCAR-5,> 100000 nM (inactive)
same,GI50,OVCAR-8,> 100000 nM (inactive)
same,GI50,PC-3,> 100000 nM (inactive)
same,GI50,RPMI-8226,> 100000 nM (inactive)
same,GI50,SF-268,> 100000 nM (inactive)
same,GI50,SF-295,> 100000 nM (inactive)
same,GI50,SF-539,> 100000 nM (inactive)
same,GI50,SK-MEL-2,> 100000 nM (inactive)
same,GI50,SK-MEL-5,58900 nM (inactive)
same,GI50,SK-OV-3,> 100000 nM (inactive)
same,GI50,SN12C,> 100000 nM (inactive)
same,GI50,SNB-19,> 100000 nM (inactive)
same,GI50,SR,> 100000 nM (inactive)
same,GI50,SW-620,> 100000 nM (inactive)
same,GI50,T47D,> 100000 nM (inactive)
same,GI50,TK-10,> 100000 nM (inactive)
same,GI50,U-251,> 100000 nM (inactive)
same,GI50,UACC-257,> 100000 nM (inactive)
same,GI50,UACC-62,> 100000 nM (inactive)
same,GI50,UO-31,> 100000 nM (inactive)
